Test results taken from publication PMC4213378, “Pharmacokinetics and Efficacy of the Spleen Tyrosine Kinase Inhibitor R406 after Ocular Delivery for Retinoblastoma” (Pharmaceutical Research, 2014).

Tests used:
[1] = Plasma pharmacokinetics after oral or subconjunctival administration; format: in vivo, mouse; settings: local (subconjunctival), mice
Experimental: For oral delivery of R788, the target dose of 25 mg/kg R788 was administered by oral gavage as a 4 mM solution in 0.01 N citrate buffer, pH 6 ([9]). For subconjunctival administration, R788 was prepared at a concentration of 4 mM in 2% PEG-800 and filtered through a 0.22 μm filter prior to use (see Table S1). R788 was also administered subconjunctivally as a suspension at a concentration of 25 mM in 10% 2-hydroxylpropyl-β-cyclodextrin (HPβCD, Sigma-Aldrich). For subconjunctival administration, R406 phenylsulfonate salt was administered at a concentration of 800–900 μM as a cosolvent solution in a formulation of 5% Cremaphor-eL, 0.5% ethanol, 0.2% Tween 80 and 94.3% PBS, filtered through a 0.22 μm filter prior to use (see Table S2). R406 phenylsulfonate salt was also administered subconjunctivally at a dose of 31.4 mM solution in DMSO. R406 free base was administered subconjunctivally at a concentration of 6.5 mM as a 25% castor oil (Sigma-Aldrich) emulsion. This emulsion was prepared by mixing castor oil: ethanol (1:1) solution of R406 (approx. 35 mM), in vacuo evaporation of the ethanol, and centrifugation to remove any excess R406, then emulsifying the R406 oil phase in an aqueous phase comprised of Cremaphor-eL, Tween 80 and PBS (final composition of the emulsion: 25% castor oil, 5% Cremaphor-eL, 0.2% Tween-80, 69.8% PBS) by probe sonication. For intravitreal injection, R788 solution was prepared by filtering a 0.12 mM (120 μM) solution of R788 in saline through a 0.22 μm filter. […] For topical delivery, 25–30 mM suspensions were prepared in 5% HPβCD. R406 or R788 concentration in all formulations was determined by UPLC prior to study (in cases where formulation was filtered before administration, concentration was determined post-filtering) Table I.
For the systemic delivery study R788 was administered as a single bolus dose (25 mg/kg, 10 mL/kg volume) by oral gavage. For the subconjunctival administration study R788 or R406 (10 µL of formulation) was injected into the subconjunctival space of an anesthetized mouse using a Hamilton microliter syringe (Hamilton company, Reno NV). For the intravitreal administration study, R788 (5 μL of […] in saline) was administered to each eye via direct injection. To perform the intravitreal injection, mice were anesthetized, a small incision between the sclera and the cornea was created with a […] needle, and the R788 was injected into the vitreous using a Hamilton microliter syringe. For the topical administration study, R406 (2 μL of 25–30 mM suspension) was applied as a drop to the surface of each eye of an anesthetized mouse.
At serial time points (0.5, 1, 2, 4, and 8 h post-injection, n = 3 for each time point), blood was collected by terminal cardiac puncture after isoflurane anesthesia. Whole-blood samples were centrifuged immediately at 10,000×g for 5 min at 4°C to separate plasma. Once the cardiac puncture and blood collection was completed, the animal was perfused with 10 mL of saline and euthanized by cervical dislocation. Eyes were removed, rinsed in PBS, gently patted dry, then rinsed and dried again. Eyes were dissected and vitreous was collected. Plasma and vitreous samples were put on dry ice immediately after collection and stored at −80°C until analysis. For quantitative analysis methods and assay validation methods and results, see Supplementary Information.
Plasma and vitreous concentration time data were analyzed using non-compartmental analysis in WinNonlin 6.2 (Pharsight, Mountain View, CA), providing PK parameters including Cmax (maximum observed concentration), Tmax (time to reach maximum observed concentration), AUC (area under the concentration time curve) and MRT (mean residence time). AUC and AUMC (area under the concentration time first moment curve) values were estimated with the linear trapezoidal method, with parameters calculated using mean concentration values at each time point. […]

retinoblastoma cells = system: retinoblastoma cells; design: method as in PMID 22237022; settings: cited from earlier work
[2] = system: RB355 retinoblastoma cells; assay: RB355 cell viability (Cell Titer Glo) after varied exposure durations; format: cell-based
Experimental: RB355 retinoblastoma cells were maintained in RPMI medium (Lonza RPMI-1640) supplemented with 10% FBS (Equitech-Bio), penicillin, streptomycin, and glutamate (Gibco). BJ cells were grown in EMEM (Lonza) supplemented with 10% FBS, penicillin and streptomycin. 293T cells were grown in DMEM supplemented with 10% FBS, penicillin, streptomycin, and glutamate. Cells were passaged every 3-4 days or when they reached 70%-80% confluence.
RB335 cells were seeded in 6-well dishes. Seeded cells were incubated overnight at 37 °C in a humidified 5% CO2 incubator. Cells were treated with DMSO alone, 1, 2.5, or 5 µM R406 and returned to the incubator. At 0, 6, 12, 18, 24, and 72 h, the drugged media was removed from a subset of samples (n=3 samples per cell line) and replaced with drug-free media, washing out the R406 for the remainder of the 72 h incubation. After 72 hours, cells were suspended and aliquoted into a 96 well plate assaying viability (50 µL of cells per well, each sample assayed in duplicate and averaged). Plates were equilibrated at room temperature for 20 min before addition of 50 μL Cell Titer Glo (Promega) to each well. Plates were shaken on an orbital shaker for 2 min at 500 rpm. Luminescence was read after 15 min on an Envision plate reader (Perkin Elmer). Dissociated cells were also stained for caspase and EdU. […]

[3] = co-solvent solution 0.88 mM, 8.8 nmol per eye

Row | Compound | Cmax ([1]; DMSO 31.4 mM, 314 nmol per eye) | Plasma AUClast ([1]; DMSO 31.4 mM, 314 nmol per eye) | Plasma Dose normalized AUC ([1]; DMSO 31.4 mM, 314 nmol per eye) | Plasma Tlast ([1]; DMSO 31.4 mM, 314 nmol per eye) | Plasma Tmax ([1]; DMSO 31.4 mM, 314 nmol per eye) | Cmax [1, 3] | Plasma AUClast [1, 3] | Plasma Dose normalized AUC [1, 3] | Plasma Tlast [1, 3] | Plasma Tmax [1, 3] | induction of caspase-mediated cell death of retinoblastoma cells in vitro (retinoblastoma cells) | cytotoxicity ([2]; 1 μM R406, 48 – 72 h exposure, read-out: drop in viability compared to DMSO treated controls) | reduction in viability compared to DMSO treated controls ([2]; 1 μM R406, up to 24 h exposure)
1 | COc1cc(Nc2ncc(F)c(Nc3ccc4c(n3)NC(=O)C(C)(C)O4)n2)cc(OC)c1OC.O=S(=O)(O)c1ccccc1 [R406 phenylsulfonate salt] | 370 nM | 0.298 µM·h | 0.5 nM∙h/nmol | 4 h | 30 min | 79 nM | 0.0429 µM·h | 2.4 nM∙h/nmol | 1 h | 30 min |  |  | 
2 | COc1cc(Nc2ncc(F)c(Nc3ccc4c(n3)NC(=O)C(C)(C)O4)n2)cc(OC)c1OC [R406] |  |  |  |  |  |  |  |  |  |  | can induce caspase-mediated cell death | ~20% | no reduction in cell viability
